Data: patent publication US4746675A, “External pharmaceutical composition” (Teijin Limited, priority 1983, dated 1988)

Experiments:
carrageenan edema = carrageenan edema inhibiting effect of betamethasone valerate ointments; type: in vivo, rat; details: Table 5, betamethasone valerate ointment with penetration enhancer
Procedure: An ointment was prepared from 0.15 part by weight of betamethasone valerate, 9.85 parts by weight of compound (168) and 90 parts by weight of the hydrophilic ointment.
In accordance with the method of R. Passarella et al. [Argneim. Forsch 30, (I), Nr. 4, 647-651 (1980)], the carrageenan edema inhibiting effect of the above ointment was examined. Specifically, 0.1 ml of a 1% carrageenan suspension in 0.9% NaCl solution was injected into the tip of the right leg of a rat (body weight 150-175 g). The foot volume was measured immediately after administration of carrageenan and 3, 5, and 6 hours after the administration by means of a mercury displacement device. 0.5, 1 and 2 hours after the administration of carrageenan, 100 mg of the ointment was well […] into each of the sites which underwent inflammation.
Various ointments were prepared from 0.15 part by weight of betamethasone valerate, […] of the various penetration enhancers shown in Table 5, and 85 parts by weight of the hydrophilic ointment, and tested in the same way as in Example 23.

[1] = test system: eye (cornea, iris, conjunctiva); test: primary eye irritation (Draize) in rabbits; type: in vivo, white native male rabbits; details: for Primary irritation score, Conjunctiva / Primary irritation score, Cornea / Primary irritation score, Iris / Primary irritation score, Total: average of three rabbits
Procedure: enhancers of this invention shown in Table 17 was applied dropwise to one eye of white native male rabbits (body weight 2.0 to 3.0 kg; 3 per group) which, it had been ascertained, were free from any trouble at the cornea, iris and conjunctiva. Nothing was applied to the other eye. Thus, irritation of the absorption aid to the mucous membrane of the eyes were examined, and scores were calculated in accordance with the Draize's eye irritation evaluating method [Association of Foods, "Drugs and Cosmetics" (1957)].
As a control, sodium laurylsulfate, a kind of surface-active agent, was evaluated in the same way, and the results are also shown in Table 17.

CCCCCCCC(=O)OCC(O)COC(=O)[C@@H]1CCC(=O)N1 (some centres unmarked) [Compound (160), 2-hydroxy-3-octanoyloxy-1-pyroglutamyloxypropane]
Percentage inhibition vs. control (carrageenan edema; 3 hrs): 17.7% | Percentage inhibition vs. control (carrageenan edema; 5 hrs): 30.8% | Percentage inhibition vs. control (carrageenan edema; 6 hrs): 29.9%

CCCCCCCCCCCCCCCCCCOCC(COC(=O)[C@@H]1CCC(=O)N1)OCCCCCCCCCCCCCCCCCC (some centres unmarked) [Compound (124), 2,3-dioctadecyloxy-1-pyroglutamyloxypropane]
Percentage inhibition vs. control (carrageenan edema; 3 hrs): 19.5% | Percentage inhibition vs. control (carrageenan edema; 5 hrs): 37.8% | Percentage inhibition vs. control (carrageenan edema; 6 hrs): 36.6%

CCCCCCCCCCC=CCCCCCCCCCC(=O)OCC(O)COC(=O)[C@@H]1CCC(=O)N1 (some centres unmarked) [Compound (192), 3-(11-docosenoyloxy)-2-hydroxy-1-pyroglutamyloxypropane]
Percentage inhibition vs. control (carrageenan edema; 3 hrs): 19.5% | Percentage inhibition vs. control (carrageenan edema; 5 hrs): 36.7% | Percentage inhibition vs. control (carrageenan edema; 6 hrs): 30.8%

CCCCCCCC/C=C\CCCCCCCC(=O)OCC(COC(=O)C1CCC(=O)N1)OC(=O)CCCCCCC/C=C\CCCCCCCC (centres unmarked) [Compound (170), 2,3,-dioleoyloxy-1-pyroglutamyloxypropane]
Percentage inhibition vs. control (carrageenan edema; 3 hrs): 17.9% | Percentage inhibition vs. control (carrageenan edema; 5 hrs): 33.4% | Percentage inhibition vs. control (carrageenan edema; 6 hrs): 36.2%

CCCCCCCCCCCCOS(=O)(=O)[O-].[Na+] [Sodium Laurylsulfate, sodium laurylsulfate, reference compound]
Primary irritation score, Conjunctiva ([1]; 0.1% soln, 1 hour): 4.0 | Primary irritation score, Cornea ([1]; 0.1% soln, 1 hour): 0 | Primary irritation score, Iris ([1]; 0.1% soln, 1 hour): 0 | Primary irritation score, Total ([1]; 0.1% soln, 1 hour): 4.0 | Primary irritation score, Conjunctiva ([1]; 0.1% soln, 3 hours): 4.0 | Primary irritation score, Cornea ([1]; 0.1% soln, 3 hours): 0 | Primary irritation score, Iris ([1]; 0.1% soln, 3 hours): 0 | Primary irritation score, Total ([1]; 0.1% soln, 3 hours): 4.0 | Primary irritation score, Conjunctiva ([1]; 0.1% soln, 6 hours): 0 | Primary irritation score, Cornea ([1]; 0.1% soln, 6 hours): 0 | Primary irritation score, Iris ([1]; 0.1% soln, 6 hours): 0 | Primary irritation score, Total ([1]; 0.1% soln, 6 hours): 0 | Primary irritation score, Conjunctiva ([1]; 0.1% soln, 24 hours): 0 | Primary irritation score, Cornea ([1]; 0.1% soln, 24 hours): 0 | Primary irritation score, Iris ([1]; 0.1% soln, 24 hours): 0 | Primary irritation score, Total ([1]; 0.1% soln, 24 hours): 0 | Primary irritation score, Conjunctiva ([1]; 0.1% soln, 48 hours): 0 | Primary irritation score, Cornea ([1]; 0.1% soln, 48 hours): 0 | Primary irritation score, Iris ([1]; 0.1% soln, 48 hours): 0 | Primary irritation score, Total ([1]; 0.1% soln, 48 hours): 0 | Primary irritation score, Conjunctiva ([1]; 0.1% soln, 72 hours): 0 | Primary irritation score, Cornea ([1]; 0.1% soln, 72 hours): 0 | Primary irritation score, Iris ([1]; 0.1% soln, 72 hours): 0 | Primary irritation score, Total ([1]; 0.1% soln, 72 hours): 0 | Primary irritation score, Conjunctiva ([1]; 0.1% soln, 96 hours): 0 | Primary irritation score, Cornea ([1]; 0.1% soln, 96 hours): 0 | Primary irritation score, Iris ([1]; 0.1% soln, 96 hours): 0 | Primary irritation score, Total ([1]; 0.1% soln, 96 hours): 0 | Primary irritation score, Conjunctiva ([1]; 0.1% soln, 168 hours): 0 | Primary irritation score, Cornea ([1]; 0.1% soln, 168 hours): 0 | Primary irritation score, Iris ([1]; 0.1% soln, 168 hours): 0 | Primary irritation score, Total ([1]; 0.1% soln, 168 hours): 0 | Primary irritation score, Conjunctiva ([1]; 2.4% soln, 1 hour): 13.3 | Primary irritation score, Cornea ([1]; 2.4% soln, 1 hour): 0 | Primary irritation score, Iris ([1]; 2.4% soln, 1 hour): 5.0 | Primary irritation score, Total ([1]; 2.4% soln, 1 hour): 18.3 | Primary irritation score, Conjunctiva ([1]; 2.4% soln, 3 hours): 12.7 | Primary irritation score, Cornea ([1]; 2.4% soln, 3 hours): 0 | Primary irritation score, Iris ([1]; 2.4% soln, 3 hours): 0 | Primary irritation score, Total ([1]; 2.4% soln, 3 hours): 12.7 | Primary irritation score, Conjunctiva ([1]; 2.4% soln, 6 hours): 11.3 | Primary irritation score, Cornea ([1]; 2.4% soln, 6 hours): 0 | Primary irritation score, Iris ([1]; 2.4% soln, 6 hours): 0 | Primary irritation score, Total ([1]; 2.4% soln, 6 hours): 11.3 | Primary irritation score, Conjunctiva ([1]; 2.4% soln, 24 hours): 8.0 | Primary irritation score, Cornea ([1]; 2.4% soln, 24 hours): 0 | Primary irritation score, Iris ([1]; 2.4% soln, 24 hours): 0 | Primary irritation score, Total ([1]; 2.4% soln, 24 hours): 8.0 | Primary irritation score, Conjunctiva ([1]; 2.4% soln, 48 hours): 4.0 | Primary irritation score, Cornea ([1]; 2.4% soln, 48 hours): 0 | Primary irritation score, Iris ([1]; 2.4% soln, 48 hours): 0 | Primary irritation score, Total ([1]; 2.4% soln, 48 hours): 4.0 | Primary irritation score, Conjunctiva ([1]; 2.4% soln, 72 hours): 2.7 | Primary irritation score, Cornea ([1]; 2.4% soln, 72 hours): 0 | Primary irritation score, Iris ([1]; 2.4% soln, 72 hours): 0 | Primary irritation score, Total ([1]; 2.4% soln, 72 hours): 2.7 | Primary irritation score, Conjunctiva ([1]; 2.4% soln, 96 hours): 2.0 | Primary irritation score, Cornea ([1]; 2.4% soln, 96 hours): 0 | Primary irritation score, Iris ([1]; 2.4% soln, 96 hours): 0 | Primary irritation score, Total ([1]; 2.4% soln, 96 hours): 2.0 | Primary irritation score, Conjunctiva ([1]; 2.4% soln, 168 hours): 0.7 | Primary irritation score, Cornea ([1]; 2.4% soln, 168 hours): 0 | Primary irritation score, Iris ([1]; 2.4% soln, 168 hours): 0 | Primary irritation score, Total ([1]; 2.4% soln, 168 hours): 0.7 | eye irritation (in words) ([1]; rabbit, in vivo): fairly strong irritation

CCCCC(=O)OCC(O)COC(=O)[C@@H]1CCC(=O)N1 (some centres unmarked) [Compound (156), 2-hydroxy-3-valeryloxy-1-pyroglutamyloxypropane]
Percentage inhibition vs. control (carrageenan edema; 3 hrs): 18.6% | Percentage inhibition vs. control (carrageenan edema; 5 hrs): 35.1% | Percentage inhibition vs. control (carrageenan edema; 6 hrs): 34.3%

CCC=CC(=O)OCC(O)COC(=O)[C@@H]1CCC(=O)N1 (some centres unmarked) [Compound (184), 2-hydroxy-3(2-pentenoyloxy)-1-pyroglutamyloxypropane]
Percentage inhibition vs. control (carrageenan edema; 3 hrs): 19.0% | Percentage inhibition vs. control (carrageenan edema; 5 hrs): 35.3% | Percentage inhibition vs. control (carrageenan edema; 6 hrs): 35.5%

CCCCCCCCOCC(COC(=O)[C@@H]1CCC(=O)N1)OCCCCCCCC (some centres unmarked) [Compound (122), 2,3-dioctyloxy-1-pyroglutamyloxypropane]
Percentage inhibition vs. control (carrageenan edema; 3 hrs): 20.2% | Percentage inhibition vs. control (carrageenan edema; 5 hrs): 36.5% | Percentage inhibition vs. control (carrageenan edema; 6 hrs): 38.3%

CCCCC(=O)OCC(COC(=O)[C@@H]1CCC(=O)N1)OC(=O)CCCC (some centres unmarked) [Compound (158), 2,3-divaleryloxy-1-pyroglutamyloxypropane]
Percentage inhibition vs. control (carrageenan edema; 3 hrs): 18.0% | Percentage inhibition vs. control (carrageenan edema; 5 hrs): 36.0% | Percentage inhibition vs. control (carrageenan edema; 6 hrs): 36.1%

CCCCCCOCC(O)COC(=O)[C@@H]1CCC(=O)N1 (some centres unmarked) [Compound (104), 3-hexyloxy-2-hydroxy-1-pyroglutamyloxypropane]
Percentage inhibition vs. control (carrageenan edema; 3 hrs): 18.3% | Percentage inhibition vs. control (carrageenan edema; 5 hrs): 35.3% | Percentage inhibition vs. control (carrageenan edema; 6 hrs): 37.0%

CCCCCCCCCCCCCCCCCCOCC(O)COC(=O)[C@@H]1CCC(=O)N1 (some centres unmarked) [Compound (112), 2-hydroxy-3-octadecyloxy-1-pyroglutamyloxypropane]
Percentage inhibition vs. control (carrageenan edema; 3 hrs): 17.8% | Percentage inhibition vs. control (carrageenan edema; 5 hrs): 32.2% | Percentage inhibition vs. control (carrageenan edema; 6 hrs): 33.0%

CC1(C)OCC(COC(=O)C2CCC(=O)N2)O1 (centres unmarked) [Compound (202), 2,3-dioxo-(dimethyl)methylene-1-pyroglutamyloxypropane]
Percentage inhibition vs. control (carrageenan edema; 3 hrs): 17.7% | Percentage inhibition vs. control (carrageenan edema; 5 hrs): 39.6% | Percentage inhibition vs. control (carrageenan edema; 6 hrs): 36.1%

CCCCCCCCCCCCCCCC1OCC(COC(=O)C2CCC(=O)N2)O1 (centres unmarked) [Compound (220), 2,3-dioxo-(pentadecyl)methylene-1-pyroglutamyloxypropane]
Percentage inhibition vs. control (carrageenan edema; 3 hrs): 16.6% | Percentage inhibition vs. control (carrageenan edema; 5 hrs): 29.7% | Percentage inhibition vs. control (carrageenan edema; 6 hrs): 29.8%

CCCCCCCC=CCCCCCCCCOCC(COC(=O)[C@@H]1CCC(=O)N1)OCCCCCCCCC=CCCCCCCC (some centres unmarked) [Compound (142), 2,3-di(9-heptadecenyloxy)-1-pyroglutamyloxypropane]
Percentage inhibition vs. control (carrageenan edema; 3 hrs): 16.5% | Percentage inhibition vs. control (carrageenan edema; 5 hrs): 34.6% | Percentage inhibition vs. control (carrageenan edema; 6 hrs): 34.0%
